Assays:
Test in all cases: 50% growth inhibitory concentration (IC50) determination assay
Assay type in all cases: cell-based
Details in all cases: Iso-Sensitest broth, 0.098 = detection limit
[1] = system: K. pneumoniae (ATCC10031)
Protocol: (§1) Stock compounds in DMSO were serially two-fold diluted (range from 50 to 0.097 μM final concentration) in 384 wells microtiter plates and inoculated with 49 μL the bacterial suspension in Iso-Sensitest broth medium to have a final cell concentration of ˜5×10^5 CFU/mL in a final volume/well of 50 μL/well. Microtiter plates were incubated at 35±2° C. Bacterial cell growth was determined with the measurement of optical density at λ=600 nm each 20 minutes over a time course of 16 h. […] GP-6 (Example 4.131 disclosed in WO 2012/125746 A1) was used as the reference compound in Table 6-8. […] The data of IC50 over S. aureus (ATCC29213), K. pneumoniae (ATCC10031), and A. baumannii (ATCC17978) are illustrated in Table 6.

[2] = system: S. aureus (ATCC29213)
Protocol: as §1

[3] = system: A. baumannii (ATCC17978)
Protocol: as §1

[4] = Acinetobacter baumannii, ATCC17978, A. baumannii ATCC17978

IC50 ([1]; Klebsiella pneumoniae) | IC50 ([2]; Staphylococcus aureus) | IC50 [3, 4] | IC50 [1] | IC50 [2] | IC50 ([3]; A. baumannii ATCC17978) | SMILES
0.111 µM | < 0.098 µM | 0.291 µM |  |  |  | CNc1cc(F)c(F)c2c1[nH]c1ncc(-c3cnc4c(c3)c(=O)c(C(=O)O)cn4C)c(N3CCC[C@H]3CO)c12 [Example 1.77]
< 0.098 µM | < 0.098 µM | 0.164 µM |  |  |  | CNc1cc(F)cc2c1[nH]c1ncc(-c3cnc4c(c3)c(=O)c(C(=O)O)cn4C3CCN(C)C3)c(N3CCOCC3)c12 (stereo not drawn) [Example 1.81]
0.257 µM | < 0.098 µM | 0.507 µM |  |  |  | CNc1cc(F)c(F)c2c1[nH]c1ncc(-c3cnc4c(c3)c(=O)c(C(=O)O)cn4C)c(N3CCSCC3)c12 [Example 1.97]
< 0.098 µM | < 0.098 µM | 0.771 µM |  |  |  | CNc1cc(F)cc2c1[nH]c1ncc(-c3cnc4c(c3)c(=O)c(C(=O)O)cn4C)c(N3CCC(CN(C)C4CC4)C3)c12 (stereo not drawn) [Example 1.99]
< 0.098 µM | < 0.098 µM | 0.134 µM |  |  |  | CNc1cc(F)cc2c1[nH]c1ncc(-c3cnc4c(c3)c(=O)c(C(=O)O)cn4C)c(N3CCC(C)(CN(C)C)C3)c12 (stereo not drawn) [Example 1.102]
< 0.098 µM | < 0.098 µM | 0.137 µM |  |  |  | CCNc1cc(F)c(F)c2c1[nH]c1ncc(-c3cnc4c(c3)c(=O)c(C(=O)O)cn4C)c(N3CCC(N(C)C)C3)c12 (stereo not drawn) [Example 1.104]
< 0.098 µM | < 0.098 µM | 0.088 µM |  |  |  | CNc1cc(F)c(F)c2c1[nH]c1ncc(-c3cnc4c(c3)c(=O)c(C(=O)O)cn4C)c(N3CCC(F)(CN(C)C)C3)c12 (stereo not drawn) [Example 1.108]
< 0.098 µM | < 0.098 µM | 0.066 µM |  |  |  | CNc1cc(F)cc2c1[nH]c1ncc(-c3cnc4c(c3)c(=O)c(C(=O)O)cn4C)c(N3CCC(F)(CN(C)C)C3)c12 (stereo not drawn) [Example 1.109]
< 0.098 µM | < 0.098 µM | 0.334 µM |  |  |  | CNc1cc(F)cc2c1[nH]c1ncc(-c3cnc4c(c3)c(=O)c(C(=O)O)cn4C)c(N3CC4[C@@H](C3)OCCN4C)c12 (stereo partly drawn) [Example 1.112]
< 0.098 µM | < 0.098 µM | 0.103 µM |  |  |  | CNc1cc(F)cc2c1[nH]c1ncc(-c3cnc4c(c3)c(=O)c(C(=O)O)cn4C)c(N3CCC(NC4CC4)C3)c12 (stereo not drawn) [Example 1.114]
< 0.098 µM | < 0.098 µM | 0.172 µM |  |  |  | CNc1cc(F)cc2c1[nH]c1ncc(-c3cnc4c(c3)c(=O)c(C(=O)O)cn4C)c(N3CCC(CNC4CC4)C3)c12 (stereo not drawn) [Example 1.136]
< 0.098 µM | < 0.098 µM | 0.195 µM |  |  |  | CNc1cc(F)c(F)c2c1[nH]c1ncc(-c3cnc4c(c3)c(=O)c(C(=O)O)cn4C)c(N3CCC(CN(C)CCOC)C3)c12 (stereo not drawn) [Example 1.142]
< 0.098 µM | < 0.098 µM | 0.109 µM |  |  |  | CNc1cc(F)c(F)c2c1[nH]c1ncc(-c3cnc4c(c3)c(=O)c(C(=O)O)cn4C)c(N3CC(CN(C)C)C(F)(F)C3)c12 (stereo not drawn) [Example 1.143]
 |  |  | < 0.098 µM | < 0.098 µM | 0.143 µM | CNc1cc(F)c(F)c2c1[nH]c1ncc(-c3cnc4c(c3)c(=O)c(C(=O)O)cn4C)c(N3C[C@H](C)[C@@H](N(C)C)C3)c12 [Example 1.167]
< 0.098 µM | < 0.098 µM |  |  |  | 0.287 µM | CNc1cc(F)c(F)c2c1[nH]c1ncc(-c3cnc4c(c3)c(=O)c(C(=O)O)cn4C)c(N3C[C@H](F)[C@@H](N(C)C)C3)c12 [Example 1.168]
< 0.098 µM | < 0.098 µM | 0.229 µM |  |  |  | CNc1cc(F)cc2c1[nH]c1ncc(-c3cnc4c(c3)c(=O)c(C(=O)O)cn4C)c(N3C[C@H](F)[C@@H](N(C)C)C3)c12 [Example 1.169]
0.112 µM | < 0.098 µM | 0.353 µM |  |  |  | CNc1cc(F)c(F)c2c1[nH]c1ncc(-c3cnc4c(c3)c(=O)c(C(=O)O)cn4N(C)C)c(N3CCOCC3)c12 [Example 1.180]
< 0.098 µM | 0.321 µM | 0.524 µM |  |  |  | CNc1cc(F)cc2c1[nH]c1ncc(-c3cnc4c(c3)c(=O)c(C(=O)O)cn4C)c(N3CCCN(C)CC3)c12 [Example 1.185]
< 0.098 µM | < 0.098 µM | 0.201 µM |  |  |  | CNc1cc(F)c(F)c2c1[nH]c1ncc(-c3cnc4c(c3)c(=O)c(C(=O)O)cn4C)c(N3CCN(C4CC4)CC3)c12 [Example 1.204]
0.16 µM | < 0.098 µM | 0.78 µM |  |  |  | CNc1cc(F)c(F)c2c1[nH]c1ncc(-c3cnc4c(c3)c(=O)c(C(=O)O)cn4C)c(N3CCCC3)c12 [Example 1.208]
< 0.098 µM | < 0.098 µM | < 0.098 µM |  |  |  | CNc1cc(F)cc2c1[nH]c1ncc(-c3cnc4c(c3)c(=O)c(C(=O)O)cn4NC)c(N3CC4[C@H](CCN4C)C3)c12 (stereo partly drawn) [Example 1.210]
< 0.098 µM | < 0.098 µM | 0.497 µM |  |  |  | CNc1cc(F)c(F)c2c1[nH]c1ncc(-c3cnc4c(c3)c(=O)c(C(=O)O)cn4C)c(N3CC4[C@H](CC[C@H]4CN(C)C)C3)c12 (stereo partly drawn) [Example 1.218]
< 0.098 µM | 0.11 µM | 0.207 µM |  |  |  | CNc1cc(F)c(F)c2c1[nH]c1ncc(-c3cnc4c(c3)c(=O)c(C(=O)O)cn4C)c(N3CCN(C)CC3)c12 [Example 1.226]
< 0.098 µM | 0.169 µM | 0.3 µM |  |  |  | CCN1CCN(c2c(-c3cnc4c(c3)c(=O)c(C(=O)O)cn4C)cnc3[nH]c4c(NC)cc(F)c(F)c4c23)CC1 [Example 1.233]
< 0.098 µM | 0.283 µM | 0.821 µM |  |  |  | CNc1cc(F)c(F)c2c1[nH]c1ncc(-c3cnc4c(c3)c(=O)c(C(=O)O)cn4C)c(N3CCN(C(C)C)CC3)c12 [Example 1.234]

Second part, the compound before the results:

SMILES | IC50 ([1]; Klebsiella pneumoniae) | IC50 ([2]; Staphylococcus aureus) | IC50 [3, 4] | IC50 [1] | IC50 [2] | IC50 ([3]; A. baumannii ATCC17978)
CNc1c(F)c(F)cc2c1[nH]c1ncc(-c3cnc4c(c3)c(=O)c(C(=O)O)cn4C3CCNC3)c(N3CCCC3)c12 (stereo not drawn) [Example 1.76] | < 0.098 µM | < 0.098 µM | 0.643 µM |  |  | 
CCC(Cn1cc(C(=O)O)c(=O)c2cc(-c3cnc4[nH]c5c(NC)cc(F)c(F)c5c4c3N3CCOCC3)cnc21)N(C)C (stereo not drawn) [Example 1.79] | < 0.098 µM | < 0.098 µM | 0.173 µM |  |  | 
CNc1cc(F)c(F)c2c1[nH]c1ncc(-c3cnc4c(c3)c(=O)c(C(=O)O)cn4Cc3cnco3)c(N(C)C)c12 [Example 1.87] | 0.122 µM | < 0.098 µM | 0.49 µM |  |  | 
CNc1cc(F)c(F)c2c1[nH]c1ncc(-c3cnc4c(c3)c(=O)c(C(=O)O)cn4C3CCNC3)c(N3CCCC3)c12 (stereo not drawn) [Example 1.89] |  |  |  | < 0.098 µM | < 0.098 µM | 0.315 µM
CNc1cc(F)c(F)c2c1[nH]c1ncc(-c3cnc4c(c3)c(=O)c(C(=O)O)cn4NC3CCOCC3)c(N(C)C)c12 [Example 1.91] | 0.165 µM | < 0.098 µM | 0.237 µM |  |  | 
CNc1cc(F)c(F)c2c1[nH]c1ncc(-c3cnc4c(c3)c(=O)c(C(=O)O)cn4C3CC3)c(N(C)C)c12 [Example 1.95] | 0.282 µM | < 0.098 µM | 0.276 µM |  |  | 
CNc1c(F)cc(F)c2c1[nH]c1ncc(-c3cnc4c(c3)c(=O)c(C(=O)O)cn4C)c(N3CCOCC3)c12 [Example 1.105] | < 0.098 µM | 5.22 µM | 0.216 µM |  |  | 
CNc1c(F)cc(F)c2c1[nH]c1ncc(-c3cnc4c(c3)c(=O)c(C(=O)O)cn4C3CCNC3)c(N(C)C)c12 (stereo not drawn) [Example 1.107] | < 0.098 µM | 0.189 µM | 0.699 µM |  |  | 
CNc1cc(F)c(F)c2c1[nH]c1ncc(-c3cnc4c(c3)c(=O)c(C(=O)O)cn4C)c(N3CCC(NC4CC4)C3)c12 (stereo not drawn) [Example 1.115] | < 0.098 µM | < 0.098 µM | 0.049 µM |  |  | 
CNc1cc(F)c(F)c2c1[nH]c1ncc(-c3cnc4c(c3)c(=O)c(C(=O)O)cn4C3CCN(C)C3)c(N(C)C)c12 (stereo not drawn) [Example 1.130] | < 0.098 µM | < 0.098 µM | 0.132 µM |  |  | 
CNc1cc(F)c(F)c2c1[nH]c1ncc(-c3cnc4c(c3)c(=O)c(C(=O)O)cn4C)c(N3CCC(CNC4CC4)C3)c12 (stereo not drawn) [Example 1.137] | < 0.098 µM | < 0.098 µM | 0.151 µM |  |  | 
CNc1cc(F)c(F)c2c1[nH]c1ncc(-c3cnc4c(c3)c(=O)c(C(=O)O)cn4C(C)CCO)c(N(C)C)c12 (stereo not drawn) [Example 1.145] | 0.202 µM | < 0.098 µM | 0.341 µM |  |  | 
CNc1cc(F)c(F)c2c1[nH]c1ncc(-c3cnc4c(c3)c(=O)c(C(=O)O)cn4CC3(O)CC3)c(N(C)C)c12 [Example 1.146] | 0.411 µM | < 0.098 µM | 0.525 µM |  |  | 
CNc1cc(F)c(F)c2c1[nH]c1ncc(-c3cnc4c(c3)c(=O)c(C(=O)O)cn4[C@@H]3CCNC3)c(N(C)C)c12 [Example 1.155] | < 0.098 µM | 3.8 µM | 0.328 µM |  |  | 
CNc1cc(F)c(F)c2c1[nH]c1ncc(-c3cnc4c(c3)c(=O)c(C(=O)O)cn4[C@@H]3CCNC3)c(N3CCCC3)c12 [Example 1.156] | < 0.098 µM | < 0.098 µM | 0.478 µM |  |  | 
CNc1cc(F)c(F)c2c1[nH]c1ncc(-c3cnc4c(c3)c(=O)c(C(=O)O)cn4C)c(N3CC[C@@H](CN4CCOCC4)C3)c12 [Example 1.174] | 0.224 µM | < 0.098 µM | 0.784 µM |  |  | 
CNc1cc(F)c(F)c2c1[nH]c1ncc(-c3cnc4c(c3)c(=O)c(C(=O)O)cn4CC(C)(C)N(C)C)c(N(C)C)c12 [Example 1.178] | < 0.098 µM | < 0.098 µM | 0.235 µM |  |  | 
CNc1cc(F)c(F)c2c1[nH]c1ncc(-c3cnc4c(c3)c(=O)c(C(=O)O)cn4NC)c(N3CC[C@H]4CCN(C)C4C3)c12 (stereo partly drawn) [Example 1.199] | < 0.098 µM | < 0.098 µM | 0.151 µM |  |  | 
